Assays:
[1] = Carrageenan-induced paw edema in the rat (anti-inflammatory activity); type: in vivo; settings: 3 h, 10 mg/Kg, oral, female rats, read-out: % inhibition of increase in hind paw weight
Experimental: The anti-inflammatory activity of compounds of this invention was determined by measuring the inhibition of carrageenan-induced paw edema in the rat, using a modification of the method described in Winter C. k et al (1962) "Carrageenan-Induced Edema in Hind Paw of the Rat as an Assay for Anti-inflammatory Drugs". Proc. Soc. Exp. Biol. Med. 111: 544-547. This assay has been used as a primary in vivo screen for anti-inflammatory activity of most NSAIDs, and is considered predictive of human efficacy. Briefly, test materials were administered orally to female rats in a volume of 1 ml prepared as solutions or suspensions in an aqueous vehicle containing 0.9% NaCl, 0.5% sodium carboxymethyl-cellulose, 0.4% polysorbate 80, 0.9% benzyl alcohol and 97.3% distilled water. Control rats received vehicle alone. After 1 hr 0.05 ml of a 0.5% solution of Carrageenan (Type IV Lambda, Sigma Chemical Co.) in 0.9% saline was injected into the subplantar region of the right hind paw. Three hours later the rats were euthanized in a carbon dioxide atmosphere; hind paws were removed by severing at the tatso-crural joint; and the left and right paws were weighed. The increase in weight of the right paw over the left paw was obtained for each animal and the mean increases were calculated for each group. The anti-inflammatory activity of the test materials is expressed as the percent inhibition of the increase in hind paw weight of the test group relative to the vehicle-dosed control group.
The anti-inflammatory activities (expressed as % inhibition) of some of the compounds of the invention were: […]

COX I = COX I (Homo sapiens, UniProt P23219); experiment: Inhibition of COX I in vitro, partially purified enzyme, radiometric assay; type: biochemical; parameters: made in house; settings: 20 micromolar arachidonic acid
Experimental: The COX I and COX II inhibitory activity of compounds of this invention in vitro was determined using partially purified COX I and COX II enzymes, prepared as described in J. Barnett et al, Biochim. Biophys.
COX I and COX II samples were diluted with Tris-HCl buffer (50 mM Tris-HCl, pH 7.9) containing 2 mM EDTA and 10% glycerol and reconstituted by incubating first with 2 mM phenol for 5 minutes and then with 1 micromolar hematin for an additional 5 minutes. 125 μl of the reconstituted COX I or COX II enzyme were preincubated for 10 minutes at room temperature in a shaking water bath with the compounds of the invention dissolved in 2-15 μl of DMSO or the carrier vehicles (control samples). The enzyme reaction was initiated by adding 25 μl of 1-[14C]arachidonic acid (80,000-100,000 cpm/tube; 20 micromolar final concentration) and the reaction was allowed to continue for an additional 45 seconds. The reaction was terminated by adding 100 μl of 2N HCl and 750 μl water. An aliquot (950 μl) of the reaction mixture was loaded onto a 1 ml C18 Sep-Pak column (J. T. Baker, Phillipsburg, N.J.) which had been previously washed with 2-3 ml methanol and equilibrated with 5-6 ml distilled water. Oxygenated products were quantitatively eluted with 3 ml of acetonitrile/water/acetic acid (50:50:0.1, v/v) and the radioactivity in the eluate determined in a scintillation counter.

COX II = biological target: T1, COX II (Homo sapiens, UniProt P35354); experiment: Inhibition of COX II in a cell based assay (human foreskin fibroblasts, PGE2 ELISA); parameters: host or cells: primary human foreskin fibroblasts (HFF), induced with PMA and human interleukin-1; settings: human foreskin fibroblasts (HFF)
T1 sequence (P35354 18-604): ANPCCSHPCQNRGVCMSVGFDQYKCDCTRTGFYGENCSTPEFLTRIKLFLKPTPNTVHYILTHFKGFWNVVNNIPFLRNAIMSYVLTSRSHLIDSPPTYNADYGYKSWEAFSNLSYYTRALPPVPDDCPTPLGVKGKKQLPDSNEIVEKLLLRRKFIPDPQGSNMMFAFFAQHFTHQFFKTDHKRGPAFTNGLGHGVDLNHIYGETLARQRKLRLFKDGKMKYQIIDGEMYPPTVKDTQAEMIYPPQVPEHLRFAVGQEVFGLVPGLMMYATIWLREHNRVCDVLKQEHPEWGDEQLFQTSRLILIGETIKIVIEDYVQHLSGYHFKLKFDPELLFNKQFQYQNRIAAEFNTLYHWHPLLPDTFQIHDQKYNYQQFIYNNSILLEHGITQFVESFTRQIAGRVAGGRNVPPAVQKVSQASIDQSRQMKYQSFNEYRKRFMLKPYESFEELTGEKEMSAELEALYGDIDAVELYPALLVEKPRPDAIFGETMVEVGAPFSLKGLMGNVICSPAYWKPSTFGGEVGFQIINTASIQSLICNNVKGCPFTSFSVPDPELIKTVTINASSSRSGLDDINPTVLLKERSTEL
Experimental: The COX I and COX II inhibitory activity of compounds of this invention in a cell based assay was determined as described below.
The inhibitory activity of test compounds against cell associated COX-2 was measured using primary cultures of human foreskin fibroblasts (HFF). HFF cultures were obtained from ATCC, grown in DMEM medium (Gibco) and used between 13-30 passages. Cells were plated in 96-well microtiter plates at a density of 6-8×10^4 cells/well in DMEM containing 10% fetal calf serum (Sigma) and cultured at 37° C. until they became confluent. The medium was removed and the cells were washed once with PBS. COX-2 activity was induced by incubating the cells with fresh DMEM containing 0.1 μM phorbol 12-myristate 13-acetate (PMA, Sigma) and 1ng/ml of human interleukin-1 (Sigma) at 37° C. After 16 h the medium was removed and the cells were washed twice with phosphate buffered saline (PBS, Gibco). 200 μl/well of fresh medium containing desired concentrations of the test compounds in DMSO, or the carrier vehicle (control wells) was added and the cells incubated at 37° C. for 30 minutes; after which 5 μM calcium ionophore A23187 (Sigma) was added and the incubation was continued for an additional 10 minutes. The reaction was terminated by transferring the plates to ice. The culture supernatants were transferred and appropriately diluted, and the amount of prostaglandin E2 (PGE2) present in each supernatant was quantitated using an ELISA kit (Cayman Chemicals).
The COX I and COX II inhibitory activities in the cell based assay (expressed as IC50) of some compounds of the invention were: […]

Sequence of COX I (P23219 24-599): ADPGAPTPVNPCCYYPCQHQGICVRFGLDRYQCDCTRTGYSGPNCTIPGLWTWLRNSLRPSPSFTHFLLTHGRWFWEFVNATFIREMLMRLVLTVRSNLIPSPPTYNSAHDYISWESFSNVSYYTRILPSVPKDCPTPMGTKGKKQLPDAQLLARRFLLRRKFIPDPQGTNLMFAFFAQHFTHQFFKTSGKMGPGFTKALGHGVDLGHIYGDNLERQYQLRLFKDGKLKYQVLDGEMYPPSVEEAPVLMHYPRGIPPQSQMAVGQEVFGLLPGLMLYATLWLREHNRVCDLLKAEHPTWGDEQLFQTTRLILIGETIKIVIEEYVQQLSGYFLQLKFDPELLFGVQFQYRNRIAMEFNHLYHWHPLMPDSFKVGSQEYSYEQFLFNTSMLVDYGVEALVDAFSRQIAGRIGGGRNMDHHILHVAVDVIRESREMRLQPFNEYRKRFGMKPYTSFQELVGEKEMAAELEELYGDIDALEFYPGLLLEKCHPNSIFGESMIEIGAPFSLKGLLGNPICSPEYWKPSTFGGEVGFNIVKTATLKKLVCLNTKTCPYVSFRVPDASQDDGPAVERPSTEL

In the case of `COc1ccc(C(=O)c2cccc(Cc3ccc(=O)[nH]n3)c2C)cc1` [Cpd 11, 6-[3-(4-methoxybenzoyl)-2-methylbenzyl]-2H-pyridazin-3-one], the inhibition in vivo at 10 mg/kg [1] is reported as 44%, the IC50 (COX I) is reported as 391 µM and the IC50 (COX II) is reported as 2000 nM.

Reference: patent US5886178A, “3-aroylbenzylpyridazinone derivatives” (Syntex (U.S.A.) Inc., priority 1997, dated 1999)
